The subject of this experiment is fatty liver of the SD rats. The experiment in a line: Pathological sections and grading of fatty liver of SD rats. Format: in vivo. As to conditions: compounds 80 mg/kg, Sim 10 mg/kg, OCA 10 mg/kg. How it is done: 500 g of lard oil was taken, placed in a container, and heated to melt. When the temperature rose to 100° C., it was added with 200 g of cholesterol to dissolve completely, and then further added with 20 g of propylthiouracil. The resulted mixture was stirred well, and added with 500 ml of Tween 80 after dissolution, resulting in an oil phase. At the same time, 600 mL of distilled water and 400 mL of 1,2-propanediol were taken and heated to 60° C. in a water bath, then were added with 40 g of sodium deoxycholate. The resulted mixture was stirred well until realizing complete dissolution, so as to give an aqueous phase. The aqueous phase was added into the oil phase and mixed well to give a lipid emulsion. The lipid emulsion was heated in a water bath of 37° C. before intragastric administration to animals.
An appropriate amount of pharmaceutical was weighed, added with 0.5% CMC-Na, and mixed homogeneously by grinding. There are groups for Compound 01 (80 mg/kg), Compound 02 (80 mg/kg), Compound 03 (80 mg/kg), Compound 04 (80 mg/kg), Compound 05 (80 mg/kg), Compound 06 (80 mg)/kg), Compound 07 (80 mg/kg), Compound 08 (80 mg/kg), Compound 09 (80 mg/kg), Compound 10 (80 mg/kg), Compound 11 (80 mg/kg), Compound 12 (80 mg/kg), Compound 13 (80 mg/kg), Compound 14 (80 mg/kg), Compound 15 (80 mg/kg), Compound 16 (80 mg/kg), Compound 17 (80 mg/kg), Compound 18 (80 mg/kg), Compound 19 (80 mg/kg), Compound 20 (80 mg/kg), Compound 21 (80 mg/kg), and Compound 22 (80 mg/kg).
Male SD rats weighing 180-200 g were fed adaptively for 7 days. Based on body weight, 10 animals were used as control and the remaining animals were intragastrically administered with the lipid emulsion every day, 1 ml/100 g body weight for 14 days. After fasting for 12 hours, 1 mL of blood was collected from the orbits of the animals, and was determined by Hitachi Automatic Biochemical Analyzer 7080 for serum cholesterol (CHO), triglyceride (TG), low density lipoprotein (LDL-C) and high density lipoprotein (HDL-C).
The modeled rats were continued with the intragastric administration of the lipid emulsion. At the same time, the pharmaceutical-administered groups were administrated with a corresponding dose of pharmaceuticals, while the Model group was administrated with an equal volume of solvent. The pharmaceutical-administered groups were administrated with the lipid emulsion in the morning, and with the pharmaceuticals in the afternoon. The animals were measured for the body weight once a week, and were observed. After 14 days of continuous administration, 1 mL of blood was collected from the orbits, and was determined for the contents of triglyceride, cholesterol, low density lipoprotein and high density lipoprotein in blood serum.

SMILES strings stand for the structures.

For `Cc1ccc(C)c(OCCCC(C)(C)C(=O)NCC(=O)c2ccc(NC(=O)c3cccnc3)cc2)c1` [Compound 11], the “Pathological grading: Steatotic hepatocytes” value (shortened to “Pathological grading”) (animal 1) is recorded as “+ (25-45% of hepatocytes undergoing steatosis)”; the “Pathological grading” value (animal 2) was “++ (45-65% of hepatocytes undergoing steatosis)”; the “Pathological grading” value (animal 3) was “++ (45-65% of hepatocytes undergoing steatosis)”; the “Pathological grading” value (animal 4) is on record as “++ (45-65% of hepatocytes undergoing steatosis)”; the “Pathological grading” value (animal 5) is listed as “+ (25-45% of hepatocytes undergoing steatosis)”.

Take `CC(=O)c1ccc(NC(=O)C(C)(C)Oc2ccc(C(=O)c3cccc(Cl)c3)cc2)cc1` [Compound 07]: the “Pathological grading” value reads like this: (animal 1) “++ (45-65% of hepatocytes undergoing steatosis)”; (animal 2) “++ (45-65% of hepatocytes undergoing steatosis)”; (animal 3) “++ (45-65% of hepatocytes undergoing steatosis)”; (animal 4) “++ (45-65% of hepatocytes undergoing steatosis)”; (animal 5) “+ (25-45% of hepatocytes undergoing steatosis)”.

Consider `CC(=O)c1ccc(NC(=O)C(C)(C)CCCOc2cc(C)ccc2C)c(O)c1` [Compound 18], for which the “Pathological grading” value by setting is: (animal 1) “+ (25-45% of hepatocytes undergoing steatosis)”; (animal 2) “+ (25-45% of hepatocytes undergoing steatosis)”; (animal 3) “++ (45-65% of hepatocytes undergoing steatosis)”; (animal 4) “++ (45-65% of hepatocytes undergoing steatosis)”; (animal 5) “++ (45-65% of hepatocytes undergoing steatosis)”.

Regarding `CC(=O)c1ccc(O)c(NC(=O)C(C)(C)CCCOc2cc(C)ccc2C)c1` [Compound 05], the “Pathological grading” value is “+ (25-45% of hepatocytes undergoing steatosis)” (animal 1); “+++ (65-85% or more of hepatocytes undergoing steatosis)” (animal 2); “++ (45-65% of hepatocytes undergoing steatosis)” (animal 3); “++ (45-65% of hepatocytes undergoing steatosis)” (animal 4); “+ (25-45% of hepatocytes undergoing steatosis)” (animal 5).

As to `CC(=O)c1ccc(NC(=O)C(C)(C)Oc2ccc(Cl)cc2)cc1` [Compound 08], the “Pathological grading” value runs as follows: (animal 1) “++ (45-65% of hepatocytes undergoing steatosis)”; (animal 2) “++ (45-65% of hepatocytes undergoing steatosis)”; (animal 3) “+ (25-45% of hepatocytes undergoing steatosis)”; (animal 4) “++ (45-65% of hepatocytes undergoing steatosis)”; (animal 5) “+ (25-45% of hepatocytes undergoing steatosis)”.

With `Nc1ccc(C(=O)CNC(=O)c2cccnc2)cc1` [Compound 03], the “Pathological grading” value reads like this: (animal 1) “++ (45-65% of hepatocytes undergoing steatosis)”; (animal 2) “+ (25-45% of hepatocytes undergoing steatosis)”; (animal 3) “+++ (65-85% or more of hepatocytes undergoing steatosis)”; (animal 4) “++ (45-65% of hepatocytes undergoing steatosis)”; (animal 5) “++ (45-65% of hepatocytes undergoing steatosis)”.

In the case of `CC(C)(Oc1ccc(Cl)cc1)C(=O)Nc1ccc(C(=O)CNC(=O)c2cccnc2)cc1` [Compound 17], the “Pathological grading” value is listed as “+ (25-45% of hepatocytes undergoing steatosis)” (animal 1); “++ (45-65% of hepatocytes undergoing steatosis)” (animal 2); “++ (45-65% of hepatocytes undergoing steatosis)” (animal 3); “++ (45-65% of hepatocytes undergoing steatosis)” (animal 4); “++ (45-65% of hepatocytes undergoing steatosis)” (animal 5).

Regarding `CC(=O)c1ccc(O)c(CCCOC(=O)c2cccnc2)c1` [Compound 16], the “Pathological grading” value is “+ (25-45% of hepatocytes undergoing steatosis)” (animal 1); “++ (45-65% of hepatocytes undergoing steatosis)” (animal 2); “+++ (65-85% or more of hepatocytes undergoing steatosis)” (animal 3); “++ (45-65% of hepatocytes undergoing steatosis)” (animal 4); “+ (25-45% of hepatocytes undergoing steatosis)” (animal 5).

Turning to `CC(=O)c1ccc(O)c(NC(=O)c2cccnc2)c1` [Compound 06], the “Pathological grading” value was “+ (25-45% of hepatocytes undergoing steatosis)” (animal 1); “++ (45-65% of hepatocytes undergoing steatosis)” (animal 2); “++ (45-65% of hepatocytes undergoing steatosis)” (animal 3); “+ (25-45% of hepatocytes undergoing steatosis)” (animal 4); “++ (45-65% of hepatocytes undergoing steatosis)” (animal 5).

As for `CC(=O)c1ccc(NC(=O)c2cccnc2)c(O)c1` [Compound 20], the “Pathological grading” value is “++ (45-65% of hepatocytes undergoing steatosis)” (animal 1); “+++ (65-85% or more of hepatocytes undergoing steatosis)” (animal 2); “++ (45-65% of hepatocytes undergoing steatosis)” (animal 3); “++ (45-65% of hepatocytes undergoing steatosis)” (animal 4); “++ (45-65% of hepatocytes undergoing steatosis)” (animal 5).

As for `CC(=O)c1ccc(NC(=O)C(C)(C)Oc2ccc(Cl)cc2)c(O)c1` [Compound 19], the “Pathological grading” value (animal 1) is on record as “++ (45-65% of hepatocytes undergoing steatosis)”; the “Pathological grading” value (animal 2) is given as “++ (45-65% of hepatocytes undergoing steatosis)”; the “Pathological grading” value (animal 3) is “++ (45-65% of hepatocytes undergoing steatosis)”; the “Pathological grading” value (animal 4) is “+++ (65-85% or more of hepatocytes undergoing steatosis)”; the “Pathological grading” value (animal 5) is “+ (25-45% of hepatocytes undergoing steatosis)”.

As to `CC(=O)c1ccc(NC(=O)c2cccnc2)cc1` [Compound 01], the “Pathological grading” value (animal 1) is “++ (45-65% of hepatocytes undergoing steatosis)”; the “Pathological grading” value (animal 2) is “++ (45-65% of hepatocytes undergoing steatosis)”; the “Pathological grading” value (animal 3) is given as “++ (45-65% of hepatocytes undergoing steatosis)”; the “Pathological grading” value (animal 4) was “++ (45-65% of hepatocytes undergoing steatosis)”; the “Pathological grading” value (animal 5) is “++ (45-65% of hepatocytes undergoing steatosis)”.

Take `CC(=O)c1ccc(NC(=O)C(C)(C)Oc2ccc(C3CC3(Cl)Cl)cc2)cc1` (stereo not shown) [Compound 10]: the “Pathological grading” value is given as “++ (45-65% of hepatocytes undergoing steatosis)” (animal 1); “++ (45-65% of hepatocytes undergoing steatosis)” (animal 2); “+ (25-45% of hepatocytes undergoing steatosis)” (animal 3); “++ (45-65% of hepatocytes undergoing steatosis)” (animal 4); “++ (45-65% of hepatocytes undergoing steatosis)” (animal 5).

Take `CC(=O)c1ccc(O)c(CCCOC(=O)C(C)(C)CCCOc2cc(C)ccc2C)c1` [Compound 15]: the “Pathological grading” value is “++ (45-65% of hepatocytes undergoing steatosis)” (animal 1); “+++ (65-85% or more of hepatocytes undergoing steatosis)” (animal 2); “++ (45-65% of hepatocytes undergoing steatosis)” (animal 3); “++ (45-65% of hepatocytes undergoing steatosis)” (animal 4); “++ (45-65% of hepatocytes undergoing steatosis)” (animal 5).

Source of the values: patent US10647673B2, “Acetophenone compound, preparation method thereof, and application thereof in fatty liver prevention and treatment” (Nanjing Bioenergy Medicine Science & Technology Co., Ltd., priority 2017, dated 2020).
